We go through seven compounds from US5786358A, “Pyridopyrimidines as nonclassical antifolates” (The Trustees of Princeton University, priority 1996, dated 1998).

Assay [1] addresses T1, human monofunctional GARFT (Homo sapiens, UniProt P22102).
T1 construct: human monofunctional GARFT
T1 sequence (P22102 810-1010 limits assumed): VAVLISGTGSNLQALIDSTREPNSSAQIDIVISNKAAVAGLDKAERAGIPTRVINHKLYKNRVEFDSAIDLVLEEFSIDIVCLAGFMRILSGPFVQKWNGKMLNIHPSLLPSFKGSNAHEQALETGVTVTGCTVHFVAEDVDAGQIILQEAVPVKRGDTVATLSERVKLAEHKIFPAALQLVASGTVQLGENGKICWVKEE
The assay can be described thus: Ki against human monofunctional GARFT. Format: biochemical. Conditions: tight-binding analysis per Henderson; read-out: Ki inhibition constant against human monofunctional GARFT.

Another assay concerns CCRF-CEM cell line. The assay can be described thus: CCRF-CEM cell growth inhibition. Format: cell-based. Conditions: Homo sapiens, read-out: IC50, concentration inhibiting cell growth of a CCRF-CEM cell line by 50% as compared to control. On the procedure: For N-(N-{5-[2-(2-amino-4-hydroxy-5,6,7,8-tetrahydropyrido[2,3-d]pyrimidin-6-yl)-ethyl]thien-2-ylcarbonyl}-L-γ-glutamyl)-D-aspartic acid, the IC50 is 0.100 μg/mL. For N-(N-{5-[2-(2-amino-4-hydroxy-5,6,7,8-tetrahydropyrido[2,3-d]pyrimidin-6-yl)ethyl]thien-2-ylcarbonyl}-L-γ-glutamyl)-D-glutamic acid 1-tert.-butyl-2,2-diethyl ester, the IC50 is 1.0 μg/mL. For N-{5-[2-(2-amino-4-hydroxy-5,6,7,8-tetrahydropyrido[2,3-d]pyrimidin-6-yl)- ethyl]thien-2-ylcarbonyl}-L-homocysteic acid α-methyl ester, the IC50 is 0.200 μg/mL. […] For 2-{5-[2-(2-amino-4-hydroxy-5,6,7,8-tetrahydropyrido[2,3-d]pyrimidin-6-yl)ethyl]thien-2-ylcarbonylamino}-3-(2H-tetrazol-5-yl)propanoic acid diammonium salt the IC50 is >100 μg/mL.

The test system of assay [2] is 6C3HED lymphosarcoma tumor. The assay can be described thus: 6C3HED lymphosarcoma tumor growth inhibition in C3H female mice. Conditions: daily IV bolus injection for 8 days. Format: in vivo. On the procedure: N-(N-{5-[2-(2-amino-4-hydroxy-5,6,7,8-tetrahydropyrido[2,3 -d]pyrimidin-6-yl)ethyl]thien-2-ylcarbonyl}-L-γ-glutamyl)-D-asparticacid was evaluated against 6C3HED lymphosarcoma tumor in C3H female mice with the compound given daily, IV bolus injection, for 8 days. Compounds were administered in units of mg/kg of body weight. At the end of treatment, tumor weight was estimated using an electronic caliper interfaced to a microcomputer, and average tumor weight was calculated for each dosing level and a control group. Percentage inhibition of tumor growth was calculated as % inhibition of tumor growth according to the expression:
[1-(average tumor weight experimental group/average tumor weight control
Percentage inhibition was not calculated at a particular dosing level if mortality exceeded 20%. Cumulative dose was calculated by multiplying the daily dose by the number of days doses were administered.

In brackets after ≈: the same amount, converted by molar mass. Where a name gives a salt, the structure may show the parent alone.

`CCOC(=O)CC[C@@H](NC(=O)CC[C@H](NC(=O)c1ccc(CCC2CNc3nc(N)nc(O)c3C2)s1)C(=O)OC(C)(C)C)C(=O)OCC` (stereo partly drawn) [N-(N-{5-[2-(2-amino-4-hydroxy-5,6,7,8-tetrahydropyrido[2,3-d]pyrimidin-6-yl)ethyl]thien-2-ylcarbonyl}-L-γ-glutamyl)-D-glutamic acid 1-tert.-butyl-2,2-diethyl ester]: the Ki (commonly a dissociation constant, usually derived from enzyme kinetics or from competition with a known ligand) in assay [1] was 7.7 nM. In the assay on CCRF-CEM cell line, the IC50 was 1 µg/mL (≈ 1.45 µM).

Consider `Nc1nc(O)c2c(n1)NCC(CCc1ccc(C(=O)N[C@@H](CCC(=O)N[C@H](CC(=O)O)C(=O)O)C(=O)O)s1)C2` (stereo partly shown) [Example 2], for which the Ki in assay [1] was 0.244 nM. Also, the “% inhibition of tumor growth” value in assay [2] (100 mg/kg) and in assay [2] (200 mg/kg) was 100% each time. Further, in the assay on CCRF-CEM cell line, the IC50 came to 0.1 µg/mL (≈ 0.177 µM). As to `Nc1nc(O)c2c(n1)NCC(CCc1ccc(C(=O)NC(Cc3nn[nH]n3)C(=O)O)s1)C2` (stereo not shown) [Example 13], the Ki in assay [1] turned out to be 156 nM. Also, the IC50 in the assay with CCRF-CEM cell line was greater than 100 µg/mL.

Turning to `Nc1nc(O)c2c(n1)NCC(CCc1ccc(C(=O)N[C@@H](CCS(=O)(=O)O)C(=O)O)s1)C2` (stereo partly drawn) [Example 9, N-{5-[2-(2-Amino-4-hydroxy-5,6,7,8-tetrahydropyrido[2.3-d]pyrimidin-6-yl)-ethyl]thien-2-ylcarbonyl}-L-homocysteic Acid], in the assay with CCRF-CEM cell line, the IC50 is 0.82 µg/mL (≈ 1.69 µM). Same read-out and setting: as for `Nc1nc(O)c2c(n1)NCC(CCc1ccc(C(=O)N[C@@H](CCC(=O)N[C@H](CC(=O)O)C(=O)O)C(=O)O)cc1)C2` (stereo partly drawn) [Example 1, N-(N-{4-[2-(2-Amino-4-hydroxy-5,6,7,8-tetrahydropyrido[2,3-d]pyrimidin-6-yl)ethyl]benzoyl}-L-γ-glutamyl)-D-aspartic Acid], the figure is 1.6 µg/mL (≈ 2.86 µM). On to `COC(=O)[C@H](CCS(=O)(=O)O)NC(=O)c1ccc(CCC2CNc3nc(N)nc(O)c3C2)s1` (stereo partly shown) [Example 8], for which the Ki in assay [1] worked out at 3.5 nM. For the same compound, the IC50 in the assay on CCRF-CEM cell line was determined as 0.2 µg/mL (≈ 0.4 µM). With `Nc1nc(O)c2c(n1)NCC(CCc1ccc(C(=O)N[C@@H](Cc3nn[nH]n3)C(=O)O)cc1)C2` (stereo partly shown) [Example 12, 2-{4-[2-(2-Amino-4-hydroxy-5,6,7,8-tetrahydropyrido[2.3-d]pyrimidin-6-yl)ethyl]benzoylamino}-3-(2H-tetrazol-5-yl)propanoic Acid Diammonium Salt], the IC50 in the assay on CCRF-CEM cell line was found to be 28.6 µg/mL.
